Measured values taken from patent publication EP1932852B1, “Novel taxane related peptides and uses thereof” (Campiani, Giuseppe, priority 2006, dated 2008).

Assays:
[1] = biological target: T1, Bcl2/Nur77 complex (Homo sapiens, UniProt P10415); experiment: Co-immunoprecipitation of Nur77 with Bcl-2 in the presence of PTX; type: binding; conditions: whole cell lysates from A2780, PTX 10 µM, 2 h at 4 °C
T1 construct: endogenous in cells; host or cells: A2780 (human ovarian cancer) whole cell lysate
Description: (§1) Cells, harvested in cold phosphate-buffered saline, were extracted for 30 min at 4 °C in lysis buffer (50 mM Tris-HCl, pH 7.4, 150 mM NaCl, 1% NP-40) containing 1mM DTT, protease inhibitor cocktail (Roche) and phosphatase inhibitors (50 mM NaF, 0.2 mM Na3VO4). Mitochondria isolation was performed as previously described (Ferlini et al., 2003). After centrifugation, supernatants (300 µg from total lysates and 100 µg from mitochondrial extracts) were immunoprecipitated at 4 °C overnight in lysis buffer by adding protein A/G plus-agarose beads (Santa Cruz Biotechnology) after 2 h of incubation with 2 µg of the following antibodies: anti-Bcl-2 (N19, Santa Cruz Biotechnology), anti-Bcl-2 (clone 124, Dako), anti-Bcl-2 BH3 domain (Abgent), anti-Nur77 (Imgenex), anti-β-tubulin (H235, Santa Cruz Biotechnology), anti-class III β-tubulin polyclonal antibody (Covance) and isotype-matched non-immune IgG (Sigma) as control. […]
The significant similarity between the binding sites of the two PTX target proteins resulted from molecular modeling studies prompted the authors to investigate the possibility that PTX is a peptidomimetic compound. […] In order to assess this hypothesis, recombinant histidine-tagged Nur77 was purified and the interaction with in vitro produced Bcl-2 and Bcl-2Δ labeled with ^35S-methionine was analyzed. […]

[2] = test system: mitochondria freshly isolated from A2780wt cells; experiment: Flow cytometric assessment of Δψm in freshly isolated mitochondria (Rhodamine 123); type: cell-based, human; conditions: PTX 10 µM, 60 min, without treatment 18%
Description: (§2) Cell culture procedures and cell lines have been elsewhere described (Ferlini et al., 2003). Mitochondria were freshly isolated and mitochondrial transmembrane potential Δψm was assessed as previously described (Ferlini et al., 1995), using Rhodamine 123 (Molecular Probes) and a Facscan flow cytometer (Becton Dickinson).
(§3) Here, they used the human ovary A2780 cancer cell line and its counterpart TC1 (Ferlini et al., 2003) with acquired PTX-resistance. […] Since the homology between the Bcl-2 and Bcl-xL is high, with the exception of the loop domain, TC1 cells were stably transfected with a construct in which the loop domain of Bcl-2 (aa 35-91) was deleted and replaced with a linker sequence of four alanine residues, as previously described by Chang et al. (Chang et al., 1997). These cells are thereafter referred to as TC1 Bcl-2Δ. Mitochondria were freshly isolated from these cells and were treated with PTX (10 µM). This concentration has a clinical relevance since it corresponds to the intracellular concentration achievable in patients. (Andre et al., 2000).
(§4) The status of mitochondrial transmembrane potential (Δψm) was then monitored using the cationic fluorochrome Rhodamine 123 and flow cytometry. Results of these experiments are depicted in Fig. 1B. […] In fact, as reported in Fig. 1B the percentage of mitochondria with full leakage of the Δψm pass from 18% to 78%. […] In TC1-Bcl-2 cells, the sensitivity to PTX treatment was restored and again the vast majority of treated mitochondria were able to open the PTPC upon PTX treatment and dissipate the Δψm (from 8% to 82%). […] Taken together, these findings indicate that PTX is able to convert Bcl-2 in a factor proficient to activate the opening of PTPC and that such activity requires the presence of Bcl-2 loop domain, since it is not longer detectable in mitochondria from TC1-Bcl-2Δ cells.

[3] = test system: mitochondria freshly isolated from TC1-Bcl-2Δ cells; experiment: as above; type: cell-based, human; conditions: PTX 10 µM, 60 min; mitochondria from TC1-Bcl-2Δ; without treatment 14%
Description: as §2, §3, §4

[4] = test system: mitochondria freshly isolated from TC1 cells; experiment: as above; type: cell-based, human; conditions: PTX 10 µM, 60 min; mitochondria from TC1 (undetectable Bcl-2); without treatment 16%
Description: as §2, §3, §4

[5] = test system: mitochondria freshly isolated from TC1-Bcl-2 cells; experiment: as above; type: cell-based, human; conditions: PTX 10 µM, 60 min; mitochondria from TC1-Bcl-2; without treatment 8%
Description: as §2, §3, §4

[6] = test system: Bcl-2; experiment: Western blot of Bcl-2 in mitochondrial extracts (mobility shift); type: cell-based, human; conditions: A2780wt treated 24h with PTX 1 µM
Description: as §1
It has already been shown that Bcl-2 is phosphorylated following exposure to PTX and that phosphorylation occurs in the disordered loop of Bcl-2 (Haldar et al., 1996; Fang et al., 1998). In order to investigate if Nur77, like PTX, is able to induce Bcl-2 mobility shifts, A2780 and TC1 cell lines overexpressing Nur77 (thereafter referred to as A2780Nur77 and TC1Nur77) were established and Bcl-2 status was analysed. […]

T1 sequence (P10415 whole entry, one chain of several): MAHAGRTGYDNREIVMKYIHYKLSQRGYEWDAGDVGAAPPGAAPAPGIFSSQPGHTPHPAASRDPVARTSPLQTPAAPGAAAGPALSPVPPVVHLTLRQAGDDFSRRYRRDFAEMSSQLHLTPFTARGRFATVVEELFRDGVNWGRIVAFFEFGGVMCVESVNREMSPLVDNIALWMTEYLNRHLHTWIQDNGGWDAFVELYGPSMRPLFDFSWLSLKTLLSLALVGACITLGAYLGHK

CC(=O)O[C@H]1C(=O)[C@@]2(C)[C@H]([C@H](OC(=O)c3ccccc3)[C@]3(O)C[C@H](OC(=O)[C@H](O)[C@@H](NC(=O)c4ccccc4)c4ccccc4)C(C)=C1C3(C)C)[C@]1(OC(C)=O)CO[C@@H]1C[C@@H]2O [PTX, paclitaxel]
displacement of Nur77 from Bcl-2 [1]: able to displace Nur77 from Bcl-2
percentage of mitochondria with full leakage of the Δψm [2]: 78%
mitochondria with changed Δψm status [3]: 20%
number of mitochondria with the leakage of Δψm [4]: 26%
mitochondria that open the PTPC and dissipate the Δψm [5]: 82%
slow mobility band of Bcl-2 [6]: slow mobility band was detectable
